Patent US4596805A, “Substituted dioxopyridopyrimidines” (Ortho Pharmaceutical Corporation, priority 1984, dated 1986)

Experiments:
[1] = system: spontaneously hypertensive rats; experiment: Spontaneously Hypertensive Rat Test (Test 3); format: in vivo; settings: 100 mg/kg body weight, four male spontaneously hypertensive rats, indirect tail-cuff method
Method: Alternatively, one may evaluate the calcium antagonist activity of a test compound by measuring the displacement of nitrendipine to calcium channel antagonist receptors by the test compound according to the methods of Bolger, et al., Biochem. Biophys. Res. Comm., 104(4), 1604-1609 (1982) and Ehlert, et al., Life Sciences, 30, 2191-2202 (1982). In such a test, the amount of specifically-bound nitrendipine to rabbit heart is determined in the presence and absence of test compound. The percent nitrendipine displacement is directly related to the efficacy of the test compound as a calcium antagonist. This assay is described below as the "Nitrendipine Binding Assay". […] Circ. J., 270, 282 (1963). The general techniques for conducting such tests are disclosed in B. Vagnovsky "Automatic Blood-Pressure Measurements in Small Animals", American Laboratory, April, 1973, and "Techniques for the Measurement of Blood Pressure", Institute of Laboratory Animal Resouces NEWS, Vol. XIX (3), G 11-12, Spring, 1976. In this test a group of four male spontaneously hypertensive rats having systolic blood pressures greater than 150 mm Hg are used for each test compound. Systolic blood pressure is measured by the indirect method using a tail-cuff. The compounds are administered at a dose of 100 mg/kg body weight, and the average of the peak decrease in blood pressure is calculated for the four rats. Test results for exemplary compounds of Formula I are provided in Table I below, in which the Rabbit Potassium Depolarized Blood Vessel Test is called "Test 2", the Nitrendipine Binding Assay is called "Test 1" and the Spontaneously Hypertensive Rat test is called "Test 3".

[2] = molecular target: calcium channel antagonist receptors (rabbit heart) (Oryctolagus cuniculus, UniProt P15381); experiment: Nitrendipine Binding Assay (Test 1); set-up: species or system rabbit (female New Zealand white); settings: 3H-nitrendipine (0.05-0.50 nM), rabbit heart membrane, 90 min at 4° C., pH 7.4; read-out: Test 1 (IC50): concentration required to achieve 50% displacement of specifically-bound nitrendipine
Chain of calcium channel antagonist receptors (rabbit heart) (P15381 whole entry, other chains not shown): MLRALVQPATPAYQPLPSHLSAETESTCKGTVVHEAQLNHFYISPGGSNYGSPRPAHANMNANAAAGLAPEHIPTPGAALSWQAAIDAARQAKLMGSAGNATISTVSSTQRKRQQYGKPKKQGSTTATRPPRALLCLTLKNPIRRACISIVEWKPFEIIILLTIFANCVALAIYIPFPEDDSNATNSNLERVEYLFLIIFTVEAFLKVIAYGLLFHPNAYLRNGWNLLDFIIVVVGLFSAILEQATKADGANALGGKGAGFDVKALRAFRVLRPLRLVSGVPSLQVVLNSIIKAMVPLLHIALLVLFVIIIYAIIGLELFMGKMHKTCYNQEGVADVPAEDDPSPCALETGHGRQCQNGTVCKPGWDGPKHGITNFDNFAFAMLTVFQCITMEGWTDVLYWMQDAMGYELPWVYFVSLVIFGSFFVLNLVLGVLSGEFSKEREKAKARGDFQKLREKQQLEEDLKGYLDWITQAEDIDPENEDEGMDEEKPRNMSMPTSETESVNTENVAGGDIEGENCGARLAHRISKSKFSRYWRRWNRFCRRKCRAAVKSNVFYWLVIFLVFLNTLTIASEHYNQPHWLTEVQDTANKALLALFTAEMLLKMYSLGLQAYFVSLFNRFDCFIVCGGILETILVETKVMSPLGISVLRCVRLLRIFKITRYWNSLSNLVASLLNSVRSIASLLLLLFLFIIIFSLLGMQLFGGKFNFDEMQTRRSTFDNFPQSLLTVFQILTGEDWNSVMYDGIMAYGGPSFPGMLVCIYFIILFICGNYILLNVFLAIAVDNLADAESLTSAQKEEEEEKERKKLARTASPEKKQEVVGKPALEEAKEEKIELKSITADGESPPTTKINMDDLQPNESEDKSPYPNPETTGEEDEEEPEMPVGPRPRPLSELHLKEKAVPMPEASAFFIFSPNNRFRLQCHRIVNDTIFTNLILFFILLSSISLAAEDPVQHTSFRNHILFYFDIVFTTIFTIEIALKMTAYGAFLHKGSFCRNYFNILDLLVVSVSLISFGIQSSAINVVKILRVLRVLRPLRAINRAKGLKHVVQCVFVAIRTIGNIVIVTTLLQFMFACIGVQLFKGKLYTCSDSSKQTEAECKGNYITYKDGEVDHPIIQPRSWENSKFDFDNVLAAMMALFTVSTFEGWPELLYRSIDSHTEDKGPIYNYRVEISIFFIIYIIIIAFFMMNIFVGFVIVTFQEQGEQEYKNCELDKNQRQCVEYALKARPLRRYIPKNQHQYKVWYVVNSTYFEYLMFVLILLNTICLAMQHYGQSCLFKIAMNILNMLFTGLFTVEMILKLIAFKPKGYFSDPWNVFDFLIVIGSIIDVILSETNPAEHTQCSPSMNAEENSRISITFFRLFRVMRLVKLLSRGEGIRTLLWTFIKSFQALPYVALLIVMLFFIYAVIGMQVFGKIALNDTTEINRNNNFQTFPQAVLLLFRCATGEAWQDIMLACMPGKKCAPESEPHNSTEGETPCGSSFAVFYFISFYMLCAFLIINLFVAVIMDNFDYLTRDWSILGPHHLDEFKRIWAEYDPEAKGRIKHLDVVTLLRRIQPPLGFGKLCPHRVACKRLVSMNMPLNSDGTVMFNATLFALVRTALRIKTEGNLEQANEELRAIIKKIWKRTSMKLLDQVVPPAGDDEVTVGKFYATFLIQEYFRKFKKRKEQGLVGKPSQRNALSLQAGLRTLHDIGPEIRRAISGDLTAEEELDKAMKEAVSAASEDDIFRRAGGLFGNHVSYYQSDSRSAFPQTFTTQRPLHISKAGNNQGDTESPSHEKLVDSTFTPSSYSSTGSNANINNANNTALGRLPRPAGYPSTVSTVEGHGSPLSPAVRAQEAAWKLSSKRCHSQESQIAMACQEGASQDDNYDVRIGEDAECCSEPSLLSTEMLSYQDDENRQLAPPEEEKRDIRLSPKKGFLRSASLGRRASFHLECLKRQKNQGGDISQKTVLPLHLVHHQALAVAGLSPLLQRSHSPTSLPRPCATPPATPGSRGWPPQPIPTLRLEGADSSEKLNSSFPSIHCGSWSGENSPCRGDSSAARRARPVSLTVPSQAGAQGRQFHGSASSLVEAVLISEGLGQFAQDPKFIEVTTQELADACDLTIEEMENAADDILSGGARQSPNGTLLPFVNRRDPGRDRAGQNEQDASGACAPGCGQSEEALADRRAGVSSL
Chain of calcium channel antagonist receptors (rabbit heart) (P13806 27-960 partner limits assumed, other chains not shown): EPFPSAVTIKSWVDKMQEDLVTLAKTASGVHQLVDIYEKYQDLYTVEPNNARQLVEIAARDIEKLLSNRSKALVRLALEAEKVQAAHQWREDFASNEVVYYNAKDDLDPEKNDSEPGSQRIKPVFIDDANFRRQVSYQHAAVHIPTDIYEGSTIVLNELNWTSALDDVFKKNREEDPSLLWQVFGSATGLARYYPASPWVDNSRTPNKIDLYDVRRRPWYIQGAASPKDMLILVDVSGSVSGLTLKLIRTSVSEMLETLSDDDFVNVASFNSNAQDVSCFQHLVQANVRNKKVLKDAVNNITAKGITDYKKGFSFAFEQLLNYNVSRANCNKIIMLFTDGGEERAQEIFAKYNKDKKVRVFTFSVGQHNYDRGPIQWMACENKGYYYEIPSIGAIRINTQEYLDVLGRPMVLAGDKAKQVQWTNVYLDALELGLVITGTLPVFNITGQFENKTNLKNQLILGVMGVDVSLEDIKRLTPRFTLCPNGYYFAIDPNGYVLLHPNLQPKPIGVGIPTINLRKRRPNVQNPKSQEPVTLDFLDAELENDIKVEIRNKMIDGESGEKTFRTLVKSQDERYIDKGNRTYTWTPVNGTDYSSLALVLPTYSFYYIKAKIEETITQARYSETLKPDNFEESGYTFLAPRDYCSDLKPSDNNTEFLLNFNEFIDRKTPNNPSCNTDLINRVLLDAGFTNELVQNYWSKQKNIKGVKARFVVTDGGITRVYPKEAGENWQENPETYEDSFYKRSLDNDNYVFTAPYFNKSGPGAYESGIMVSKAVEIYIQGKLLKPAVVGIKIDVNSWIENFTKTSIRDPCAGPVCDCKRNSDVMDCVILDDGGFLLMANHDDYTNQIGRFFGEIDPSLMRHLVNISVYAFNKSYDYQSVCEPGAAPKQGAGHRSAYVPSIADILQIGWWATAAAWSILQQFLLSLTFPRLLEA
Chain of calcium channel antagonist receptors (rabbit heart) (P13806 961-1106 partner limits assumed, other chains not shown): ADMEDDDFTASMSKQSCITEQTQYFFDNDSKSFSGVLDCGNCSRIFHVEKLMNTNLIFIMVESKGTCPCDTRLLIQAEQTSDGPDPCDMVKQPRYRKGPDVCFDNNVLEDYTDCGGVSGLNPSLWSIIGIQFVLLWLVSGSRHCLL

[3] = system: vascular smooth muscle tissue from the rabbit aorta; experiment: Rabbit Potassium Depolarized Blood Vessel Test (Test 2); format: cell-based; settings: Oryctolagus cuniculus, 10 min; test compound 10^-6 M, 10 minute exposure, 30 mM potassium chloride, rabbit aorta strips, 37° C.; read-out: Test 2 (% Inhibition) of potassium-induced contraction
Description: This tissue can be made to contract when exposed to a depolarizing solution containing an elevated potassium ion concentration and normal amounts of calcium ions. A test compound added to the solution produces a dose-dependent relaxation of the contracted rabbit aortic tissue which gives an indication of calcium antagonist activity of the test compound. This test is described below as the "Rabbit Potassium Depolarized Blood Vessel Test".
In the Rabbit Potassium Depolarized Blood Vessel Test, rabbits are killed by cervical dislocation, and the thoracic aorta is removed. Helical strips, approximately 30-40 mm in length, are cut from the aorta and are suspended in tissue baths of oxygenated Krebs bicarbonate buffer at 37° C. under a resting tension of 4 g. After an equilibration period of approximately 1-2 hours, the strips are challenged with a 30 mM potassium chloride solution and the peak contraction is measured. Following measurement of the peak contraction, the strips are washed and re-equilibrated for an hour in oxygenated Krebs bicarbonate buffer. After the re-equilibration of the aorta strips, the test compound was added to the bath at a concentration of 10-^6 M and the strips were allowed to stand for 10 minutes. After the 10 minute exposure to the test compound, the tissue strips were rechallenged with 30 mM potassium chloride solution and the maximum contraction was measured. The specificity of any inhibition of contraction is determined by addition of 10 mM phenylephrine.
The percent inhibition of contraction is calculated from the formula: […]
where CT is the peak contraction in the presence of the test compound and Cc is the peak contraction without test compound.
Test results for exemplary compounds of Formula I are provided in Table I below, in which the Rabbit Potassium Depolarized Blood Vessel Test is called "Test 2", the Nitrendipine Binding Assay is called "Test 1" and the Spontaneously Hypertensive Rat test is called "Test 3".

Row | SMILES | IC50 [2] [nM] | Test 3 (mmHg, 100 mpk): average of the peak decrease in systolic blood pressure [1] [mmHg] | inhibition at 1 µM [3] [%]
1 | CC1=C(C(=O)OCCN(C)Cc2ccccc2)C(c2ccco2)c2c(n(C)c(=O)n(C)c2=O)N1.Cl.O (single isomer, unassigned) [Example III, 2-(N-Benzyl-N-methylamino)ethyl 5-(Furan-2-yl)-5,8-dihydro-1,3,7-trimethyl-2,4-dioxopyrido[2,3-d]pyrimidine-6-carboxylate Monohydrochloride Monohydrate] | 6000 | -22 | –
2 | CC1=C(C(=O)OCCN(C)Cc2ccccc2)C(c2ccco2)c2c(n(C)c(=O)n(C)c2=O)N1 (single isomer, unassigned) [Example XVI, 2-(N-benzyl-N-methylamino)ethyl-5-(furan-2-yl)-5,8-dihydro-1,3,7-trimethyl-2,4-dioxopyrido [2,3-d]pyrimidine-6-carboxylate] | 2000 | – | –
3 | COC(=O)C1=C(C)Nc2c(c(=O)n(C)c(=O)n2C)C1c1cccc([N+](=O)[O-])c1 (stereo not shown) [Example I, Methyl 5,8-Dihydro-1,3,7-trimethyl-5-(3-nitrophenyl)-2,4-dioxopyrido[2,3-d]pyrimidine-6-carboxylate] | 300 | -11 | 54
4 | COC(=O)C1=C(C)Nc2c(c(=O)n(C)c(=O)n2C)C1c1cccc(Cl)c1 (stereo not shown) [Example II, Methyl 5-(3-Chlorophenyl)-5,8-dihydro-1,3,7-trimethyl-2,4-dioxopyrido[2,3-d]pyrimidine-6-carboxylate] | 1000 | -31 | 3
5 | COC(=O)C1=C(C)Nc2c(c(=O)n(C)c(=O)n2C)C1c1ccco1 (stereo not shown) [Example XV] | 100000 | -22 | –
6 | CC1=C(C(=O)OCCN(C)Cc2ccccc2)C(c2cccc(C)c2)c2c(n(C)c(=O)n(C)c2=O)N1 (stereo not shown) [Example X] | 3200 | -12 | 16
7 | CC1=C(C(=O)OCCN(C)Cc2ccccc2)C(c2cccc([N+](=O)[O-])c2)c2c(n(C)c(=O)n(C)c2=O)N1 (stereo not shown) [IV] | 230 | -28 | 44
8 | COc1cccc(C2C(C(=O)OCCN(C)Cc3ccccc3)=C(C)Nc3c2c(=O)n(C)c(=O)n3C)c1 (stereo not shown) [IX] | 2800 | -57 | 8
9 | CC1=C(C(=O)OCCN(C)Cc2ccccc2)C(c2cccc(Cl)c2)c2c(n(C)c(=O)n(C)c2=O)N1 (stereo not shown) [VI, 2-(N-benzyl-N-methylaminoethyl) 5-(3-chlorophenyl)-5,8-dihydro-1,3,7-trimethyl-2,4-dioxopyrido[2,3-d]pyrimidine-6-carboxylate] | 100 | -50 | 52
10 | CC1=C(C(=O)OCCN(C)Cc2ccccc2)C(c2cccc(F)c2)c2c(n(C)c(=O)n(C)c2=O)N1 (stereo not shown) [VIII] | 500 | -47 | 48
11 | CC1=C(C(=O)OCCN(C)Cc2ccccc2)C(c2cccc(Cl)c2)c2c([nH]c(=O)[nH]c2=O)N1 (stereo not shown) [VII] | 8000 | – | –
12 | CC1=C(C(=O)OCCN(C)Cc2ccccc2)C(c2cccc(C#N)c2)c2c(n(C)c(=O)n(C)c2=O)N1 (stereo not shown) [V] | 650 | -31 | 26
13 | CC1=C(C(=O)OCCN(C)Cc2ccccc2)C(c2ccccc2[N+](=O)[O-])c2c(n(C)c(=O)n(C)c2=O)N1 (stereo not shown) [XIII] | – | -35 | –
14 | CC1=C(C(=O)OCCN(C)Cc2ccccc2)C(c2ccccc2[N+](=O)[O-])c2c(n(C)c(=O)n(C)c2=O)N1 (stereo not shown) [XII] | 2500 | -16 | 27
15 | CC1=C(C(=O)OCCN(C)Cc2ccccc2)C(c2ccccc2Cl)c2c(n(C)c(=O)n(C)c2=O)N1 (stereo not shown) [XIV] | 1000 | -40 | 50
16 | CC1=C(C(=O)OCCN(C)Cc2ccccc2)C(c2cc(Cl)cc(Cl)c2)c2c(n(C)c(=O)n(C)c2=O)N1 (stereo not shown) [XIX] | 2300 | -37 | 28

More lines, main results first:

Row | IC50 [2] [nM] | SMILES | Test 3 (mmHg, 100 mpk): average of the peak decrease in systolic blood pressure [1] [mmHg] | inhibition at 1 µM [3] [%]
17 | 1300 | CC1=C(C(=O)OCCN(C)Cc2ccccc2)C(c2ccccc2)c2c(n(C)c(=O)n(C)c2=O)N1 (stereo not shown) [XI] | -28 | 12
18 | 3400 | CC1=C(C(=O)OCCN(C)Cc2ccccc2)C(c2cccc(C(F)(F)F)c2)c2c(n(C)c(=O)n(C)c2=O)N1 (stereo not shown) [XVIII] | -37 | 33
19 | 2000 | CC1=C(C(=O)OCCN(C)Cc2ccccc2)C(C2CCCCC2)c2c(n(C)c(=O)n(C)c2=O)N1 (stereo not shown) [XVII] | -30 | 18
20 | 78 | CC1=C(C(=O)OCCBr)C(c2cccc(Cl)c2)c2c(n(C)c(=O)n(C)c2=O)N1 (stereo not shown) [XXIII] | -16 | 54
21 | 7700 | CC1=C(C(=O)OCCN(C)Cc2ccccc2)C(c2cccc([N+](=O)[O-])c2)c2c([nH]c(=O)[nH]c2=O)N1 (stereo not shown) [XXII] | -11 | –
22 | 109 | CC1=C(C(=O)OCCBr)C(c2cccc([N+](=O)[O-])c2)c2c(n(C)c(=O)n(C)c2=O)N1 (stereo not shown) [XXIV] | -10 | 26
23 | 385 | CC1=C(C(=O)OCCCBr)C(c2cccc(Cl)c2)c2c(n(C)c(=O)n(C)c2=O)N1 (stereo not shown) [XXIX] | – | 44
24 | 2300 | CC1=C(C(=O)OCCN(C)Cc2ccccc2)C(c2ccc(C(F)(F)F)cc2)c2c(n(C)c(=O)n(C)c2=O)N1 (stereo not shown) [XXI] | -16 | 6
25 | 175 | CC1=C(C(=O)OCCBr)C(c2ccccc2Cl)c2c(n(C)c(=O)n(C)c2=O)N1 (stereo not shown) [XXVIII] | – | 23
26 | 860 | CC1=C(C(=O)OCC(F)(F)F)C(c2cccc(Cl)c2)c2c(n(C)c(=O)n(C)c2=O)N1 (stereo not shown) [XXVII] | – | –
27 | 890 | CC1=C(C(=O)OCCF)C(c2cccc(Cl)c2)c2c(n(C)c(=O)n(C)c2=O)N1 (stereo not shown) [XXVI] | – | –
28 | 1100 | CC1=C(C(=O)OCCBr)C(c2cccc(C(F)(F)F)c2)c2c(n(C)c(=O)n(C)c2=O)N1 (stereo not shown) [XXV] | – | 41
29 | > 1000 | CC1=C(C(=O)OCCN(C)Cc2ccccc2)C(c2cccc(Cl)c2)c2c([nH]c(=S)[nH]c2=O)N1 (stereo not shown) [XX] | -16 | –
